Reference: ChEMBL document CHEMBL1121941, “Two clonidine-like compounds with substituents at the 2-, 3-, and 6-position of the phenyl ring possessing pronounced hypotensive potencies” (J Med Chem, 1982)

Key:
[1] = Partition coefficient (logP); assay type: physicochemical; conditions: octanol/water
Rattus norvegicus = test: Hypotensive activity measured as the 20% decrease in mean arterial blood pressure in anesthetized normotensive rat; assay type: functional
Felis catus = test: Hypotensive activity measured as the 20% decrease in mean arterial blood pressure in anesthetized cat; assay type: functional

| SMILES | logP [1] | pC20 (Rattus norvegicus) | pC20 (Felis catus) |
| --- | --- | --- | --- |
| Cc1ccc(Cl)c(Cl)c1NC1=NCCN1 | 1.06 | 7.79 | 7.92 |
| Clc1ccc(Cl)c(NC2=NCCN2)c1Cl | 1.71 | 8.39 | 9.17 |
| Clc1cccc(Cl)c1NC1=NCCN1 [CLONIDINE] | 0.91 | 7.96 | 8.72 |
